Data from paper PMC10650464, “Natural Compounds Purified from the Leaves of Aristotelia chilensis: Makomakinol, a New Alkaloid and the Effect of Aristoteline and Hobartine on NaV Channels” (International Journal of Molecular Sciences, 2023).
Where two headings read alike, the source gives them in different places.

How the values were obtained:
[1] = target: human NaV1.7/β1 (Homo sapiens, UniProt Q15858); assay: Automated whole-cell patch-clamp electrophysiology (QPatch-16), NaV1.7; type: cell-based; conditions: 50 ms voltage step to −20 mV from −90 mV holding potential; HEK293 cells; mean ± SEM; read-out: IC50, inhibition of NaV1.7 peak current
Protocol: Human embryonic kidney (HEK) 293 cells stably expressing human NaV1.7/β1 (SB Drug Discovery, Glasgow, UK) or Chinese hamster ovary (CHO) cells stably expressing human NaV1.8/β3 in a tetracycline-inducible system were cultured in a minimum essential media (MEM) supplemented with 10% fetal bovine serum (FBS), 2 mM l-glutamine, and selection antibiotics as recommended by the manufacturer. To induce hNaV1.8 expression, tetracycline (1 μg/mL) was added to the culture media 72 h prior to the functional assays. The cells were passaged every 3–4 days after reaching a 70–80% confluence using TrypLE Express (Thermo Fisher Scientific, Scoresby, VIC, Australia) and grown in an incubator at 37 °C with 5% CO2. Prior to the electrophysiology experiments, the cells were dissociated with TrypLE Express and resuspended in Dulbecco’s Modified Eagle Medium (DMEM) with 25 mM HEPES, 100 U/mL penicillin-streptomycin, and 0.04 mg/mL of a trypsin inhibitor from Glycine max (soybean), then stirred for 30 min. […]
The data were plotted and analyzed via GraphPad Prism, version 9.5.1. Statistical significance was defined as p < 0.05 and was determined via the paired t-test. […] The data are expressed as the mean ± standard error of the mean (SEM).

[2] = target: T1, human NaV1.8/β3 (Homo sapiens, UniProt Q9Y5Y9); assay: Automated whole-cell patch-clamp electrophysiology (QPatch-16), NaV1.8; type: cell-based; conditions: for IC50: CHO cells, mean ± SEM; for V1/2 of voltage-dependence of activation of NaV1.8 / V1/2 of voltage-dependence of steady-state fast inactivation of NaV1.8: compound at 50 µM, compared with control before addition, paired t-test
T1 construct: expressed in transfected cells
Protocol: Human embryonic kidney (HEK) 293 cells stably expressing human NaV1.7/β1 (SB Drug Discovery, Glasgow, UK) or Chinese hamster ovary (CHO) cells stably expressing human NaV1.8/β3 in a tetracycline-inducible system were cultured in a minimum essential media (MEM) supplemented with 10% fetal bovine serum (FBS), 2 mM l-glutamine, and selection antibiotics as recommended by the manufacturer. To induce hNaV1.8 expression, tetracycline (1 μg/mL) was added to the culture media 72 h prior to the functional assays. The cells were passaged every 3–4 days after reaching a 70–80% confluence using TrypLE Express (Thermo Fisher Scientific, Scoresby, VIC, Australia) and grown in an incubator at 37 °C with 5% CO2. Prior to the electrophysiology experiments, the cells were dissociated with TrypLE Express and resuspended in Dulbecco’s Modified Eagle Medium (DMEM) with 25 mM HEPES, 100 U/mL penicillin-streptomycin, and 0.04 mg/mL of a trypsin inhibitor from Glycine max (soybean), then stirred for 30 min.
Whole-cell patch-clamp experiments were performed on a QPatch-16 automated electrophysiology platform (Sophion Bioscience, Ballerup, Denmark) using single hole (QPlate 16 with a standard resistance of 2 ± 0.4 MΩ for NaV1.7) or multi-hole (QPlate 16× with a standard resistance 0.2 ± 0.04 MΩ for NaV1.8). Whole-cell currents were filtered at 8 kHz and acquired at 25 kHz and the linear leak was corrected using P/4 subtraction (leak potential −90 mV, leak sweep amplitude 10%).
The extracellular solution contained in mM included NaCl 140 (NaCl 70/Choline Chloride 70 for NaV1.7), KCl 4, CaCl2 2, MgCl2 1, HEPES 10, and glucose 10; pH 7.4; osmolarity 305 mOsm. TTX (1 μM) was added to the extracellular solution for the NaV1.8 recordings to inhibit endogenous TTX-sensitive NaV currents in CHO cells. The intracellular solution contained in mM included CsF 140, EGTA/CsOH 1/5, HEPES 10, and NaCl 10; pH 7.3 with CsOH; osmolarity 320 mOsm. Compounds were made up to a 100 mM stock in DMSO and diluted in an extracellular solution at the concentrations stated. Concentration–response curves at the resting state were acquired using a holding potential of −90 mV and a 50 ms test pulse to −20 mV (for NaV1.7) or +10 mV (for NaV1.8) every 20 s (0.05 Hz). Concentration–response curves at the inactivated state were acquired using a holding potential of −90 mV, an 8 s conditioning pulse to −40 mV, a 20 ms recovery pulse to −90 mV, and a 50 ms test pulse to +10 mV every 20 s (0.05 Hz). Peak current was normalized to the buffer control after 2 min incubations of increasing concentrations of the compound (1–100 μM). I–V curves were obtained with a holding potential of −90 mV and a series of 500 ms step pulses that ranged from −80 to +90 mV in 5 mV increments, followed by a 20 ms test pulse to +10 mV to assess the voltage-dependence of the steady-state fast inactivation (repetition interval 5 s). Peak currents were normalized to the buffer control before and after the 5 min incubation of the compound (50 μM).
The data were plotted and analyzed via GraphPad Prism, version 9.5.1. Statistical significance was defined as p < 0.05 and was determined via the paired t-test. Concentration–response curves were fitted with a four-parameter Hill equation with the variable Hill coefficient. Conductance–voltage curves were generated by calculating the conductance (G) at each voltage (V) using the equation G = I/(V − Vrev), where Vrev is the reversal potential. Conductance–voltage and steady-state fast inactivation relationships were fitted using a Boltzmann equation. The data are expressed as the mean ± standard error of the mean (SEM).

[3] = test system: rodent vascular smooth muscle; parameters: method as in PMID 31362388; conditions: rodent vascular smooth muscle ex vivo; via activation of potassium channels and inhibition of CaV1.2; read-out: IC50, vasodilation; cited from earlier work
[4] = test system: nAChR subtype α3β4; parameters: method as in PMID 31276409; conditions: cited from earlier work
[5] = 8 s conditioning voltage step to −40 mV to inactivate approximately half of the available channels, read-out: IC50, inhibition of NaV1.8 peak current after inactivating conditioning step
[6] = resting state: 50 ms voltage step to 10 mV from −90 mV holding potential, read-out: IC50, inhibition of NaV1.8 peak current

T1 sequence (Q9Y5Y9 whole entry): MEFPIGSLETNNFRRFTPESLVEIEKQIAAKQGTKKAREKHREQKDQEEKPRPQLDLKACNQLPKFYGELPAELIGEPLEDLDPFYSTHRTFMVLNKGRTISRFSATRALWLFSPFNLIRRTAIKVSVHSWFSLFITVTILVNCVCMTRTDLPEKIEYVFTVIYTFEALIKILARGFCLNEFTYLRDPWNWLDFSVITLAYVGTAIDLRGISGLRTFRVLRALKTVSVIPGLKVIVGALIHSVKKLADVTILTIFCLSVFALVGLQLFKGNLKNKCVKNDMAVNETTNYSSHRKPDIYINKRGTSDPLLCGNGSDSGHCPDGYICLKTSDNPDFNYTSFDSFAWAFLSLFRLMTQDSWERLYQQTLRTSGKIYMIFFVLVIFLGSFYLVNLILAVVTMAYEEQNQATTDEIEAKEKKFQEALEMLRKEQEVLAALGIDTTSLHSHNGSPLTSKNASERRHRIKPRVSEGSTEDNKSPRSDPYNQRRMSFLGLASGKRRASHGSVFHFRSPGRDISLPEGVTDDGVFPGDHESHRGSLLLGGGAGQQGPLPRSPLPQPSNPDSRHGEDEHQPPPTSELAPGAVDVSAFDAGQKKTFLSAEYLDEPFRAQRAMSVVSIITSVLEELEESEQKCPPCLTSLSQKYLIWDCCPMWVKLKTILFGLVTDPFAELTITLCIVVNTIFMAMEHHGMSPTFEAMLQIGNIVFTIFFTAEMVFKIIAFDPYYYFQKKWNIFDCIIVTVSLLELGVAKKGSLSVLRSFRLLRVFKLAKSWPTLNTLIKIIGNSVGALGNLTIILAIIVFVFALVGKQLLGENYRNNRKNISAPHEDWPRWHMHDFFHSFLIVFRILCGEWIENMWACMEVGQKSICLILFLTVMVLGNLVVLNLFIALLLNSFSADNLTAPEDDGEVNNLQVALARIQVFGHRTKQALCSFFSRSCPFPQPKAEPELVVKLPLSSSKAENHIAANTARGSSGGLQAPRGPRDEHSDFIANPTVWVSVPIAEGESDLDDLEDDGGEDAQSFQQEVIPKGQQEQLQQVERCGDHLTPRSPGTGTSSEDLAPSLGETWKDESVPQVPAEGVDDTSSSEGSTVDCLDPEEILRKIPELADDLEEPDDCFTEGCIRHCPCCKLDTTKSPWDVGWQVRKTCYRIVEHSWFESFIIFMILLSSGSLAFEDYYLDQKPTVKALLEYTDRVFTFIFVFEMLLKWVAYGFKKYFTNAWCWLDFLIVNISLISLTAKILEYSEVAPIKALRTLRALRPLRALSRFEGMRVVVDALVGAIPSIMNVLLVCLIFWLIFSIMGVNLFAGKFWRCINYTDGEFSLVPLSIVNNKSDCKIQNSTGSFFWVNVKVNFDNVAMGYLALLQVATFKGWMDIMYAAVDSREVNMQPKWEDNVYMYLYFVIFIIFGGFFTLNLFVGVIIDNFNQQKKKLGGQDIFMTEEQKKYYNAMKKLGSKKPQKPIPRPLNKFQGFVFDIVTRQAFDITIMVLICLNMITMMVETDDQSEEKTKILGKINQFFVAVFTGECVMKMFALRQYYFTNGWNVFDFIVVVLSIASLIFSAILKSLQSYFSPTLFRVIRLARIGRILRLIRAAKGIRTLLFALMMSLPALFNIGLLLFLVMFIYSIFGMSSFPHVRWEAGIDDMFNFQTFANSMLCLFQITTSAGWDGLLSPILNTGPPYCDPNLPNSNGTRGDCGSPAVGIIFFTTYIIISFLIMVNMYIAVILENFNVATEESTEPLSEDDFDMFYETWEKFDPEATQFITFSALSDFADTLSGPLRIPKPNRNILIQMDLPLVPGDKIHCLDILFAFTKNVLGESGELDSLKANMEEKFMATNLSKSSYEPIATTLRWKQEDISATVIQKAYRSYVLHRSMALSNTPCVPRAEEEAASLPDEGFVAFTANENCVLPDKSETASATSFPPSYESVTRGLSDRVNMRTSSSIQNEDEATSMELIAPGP
T1 sequence (Q9NY72 25-215 partner limits assumed): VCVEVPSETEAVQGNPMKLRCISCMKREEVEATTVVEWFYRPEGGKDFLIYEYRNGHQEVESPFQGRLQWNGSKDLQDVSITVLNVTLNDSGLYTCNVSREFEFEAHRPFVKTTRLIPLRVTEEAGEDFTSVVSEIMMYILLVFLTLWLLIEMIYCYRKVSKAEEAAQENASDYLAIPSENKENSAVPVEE
Chain of human NaV1.7/β1 (Q15858 whole entry): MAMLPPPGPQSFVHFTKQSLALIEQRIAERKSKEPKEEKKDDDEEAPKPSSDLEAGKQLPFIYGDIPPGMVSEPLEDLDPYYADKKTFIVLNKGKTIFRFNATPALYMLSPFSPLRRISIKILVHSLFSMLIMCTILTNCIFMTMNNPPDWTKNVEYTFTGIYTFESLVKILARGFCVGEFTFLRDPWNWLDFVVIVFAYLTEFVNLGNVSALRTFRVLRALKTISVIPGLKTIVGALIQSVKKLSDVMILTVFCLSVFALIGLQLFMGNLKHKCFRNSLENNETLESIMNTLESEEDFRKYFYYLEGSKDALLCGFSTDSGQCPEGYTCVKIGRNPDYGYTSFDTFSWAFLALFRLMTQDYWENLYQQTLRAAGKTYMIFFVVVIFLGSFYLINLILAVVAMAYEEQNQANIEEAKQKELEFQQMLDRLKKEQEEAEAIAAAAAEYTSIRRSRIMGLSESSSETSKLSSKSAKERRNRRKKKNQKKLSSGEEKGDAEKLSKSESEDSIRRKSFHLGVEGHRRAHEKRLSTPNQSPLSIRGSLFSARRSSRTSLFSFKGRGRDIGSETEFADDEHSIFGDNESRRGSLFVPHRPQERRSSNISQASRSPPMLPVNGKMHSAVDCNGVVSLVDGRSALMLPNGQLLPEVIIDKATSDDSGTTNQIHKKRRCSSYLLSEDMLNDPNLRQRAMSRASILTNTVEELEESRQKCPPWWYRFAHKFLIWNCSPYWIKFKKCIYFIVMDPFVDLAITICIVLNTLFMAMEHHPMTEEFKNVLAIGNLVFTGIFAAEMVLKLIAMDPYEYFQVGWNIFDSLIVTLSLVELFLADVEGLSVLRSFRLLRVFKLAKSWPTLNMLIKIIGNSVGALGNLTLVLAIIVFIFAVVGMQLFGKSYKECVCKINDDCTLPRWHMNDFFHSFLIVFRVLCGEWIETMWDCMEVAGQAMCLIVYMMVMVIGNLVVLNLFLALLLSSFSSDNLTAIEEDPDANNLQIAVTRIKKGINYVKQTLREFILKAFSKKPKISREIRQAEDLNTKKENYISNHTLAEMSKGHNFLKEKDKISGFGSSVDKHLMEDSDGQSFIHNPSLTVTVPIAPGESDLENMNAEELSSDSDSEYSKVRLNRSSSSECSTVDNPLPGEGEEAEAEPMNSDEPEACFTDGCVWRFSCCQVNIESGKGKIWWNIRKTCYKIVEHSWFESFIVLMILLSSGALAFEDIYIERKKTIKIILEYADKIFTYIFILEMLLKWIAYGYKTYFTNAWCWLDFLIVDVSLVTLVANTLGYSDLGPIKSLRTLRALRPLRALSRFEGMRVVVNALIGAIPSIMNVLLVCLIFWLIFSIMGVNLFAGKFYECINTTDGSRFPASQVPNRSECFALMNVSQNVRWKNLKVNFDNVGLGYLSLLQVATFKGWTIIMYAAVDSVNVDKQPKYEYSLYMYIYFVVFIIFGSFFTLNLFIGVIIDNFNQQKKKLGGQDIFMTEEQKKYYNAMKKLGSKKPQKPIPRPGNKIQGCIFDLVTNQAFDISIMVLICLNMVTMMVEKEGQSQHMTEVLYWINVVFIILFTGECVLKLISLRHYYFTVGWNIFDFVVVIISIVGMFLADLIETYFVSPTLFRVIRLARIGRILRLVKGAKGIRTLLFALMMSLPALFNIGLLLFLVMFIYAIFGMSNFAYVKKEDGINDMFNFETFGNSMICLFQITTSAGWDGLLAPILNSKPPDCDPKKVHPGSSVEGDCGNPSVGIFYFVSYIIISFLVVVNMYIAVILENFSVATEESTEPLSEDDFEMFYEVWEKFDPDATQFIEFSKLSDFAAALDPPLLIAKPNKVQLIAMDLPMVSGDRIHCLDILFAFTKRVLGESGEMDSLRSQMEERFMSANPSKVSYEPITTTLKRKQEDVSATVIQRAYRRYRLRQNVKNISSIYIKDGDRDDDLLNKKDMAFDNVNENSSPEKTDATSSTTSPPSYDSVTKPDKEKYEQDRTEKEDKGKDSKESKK
Chain of human NaV1.7/β1 (Q07699 19-218 partner): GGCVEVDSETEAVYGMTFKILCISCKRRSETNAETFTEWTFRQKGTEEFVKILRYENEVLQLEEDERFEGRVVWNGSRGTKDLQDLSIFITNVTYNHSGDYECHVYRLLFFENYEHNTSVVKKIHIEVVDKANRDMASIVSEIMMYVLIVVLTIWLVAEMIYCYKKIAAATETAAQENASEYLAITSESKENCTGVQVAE

## CC1(C)NC2Cc3c([nH]c4ccccc34)C3(C)CCC1CC23 (stereo not shown) [aristoteline]
[1]
  IC50: 49 ± 7 µM
[2]; [5]
  IC50: 30 ± 6 µM
[2]
  V1/2 of voltage-dependence of activation of NaV1.8: 1.0 ± 0.0 mV
  V1/2 of voltage-dependence of steady-state fast inactivation of NaV1.8: −34.9 ± 1.4 mV
[2]; [6]
  IC50: 68 ± 3 µM
[3]
  IC50: 16 µM
[4]
  IC50: 0.4 µM

## CC1=CC[C@H]2C[C@@H]1[C@@H](Cc1c[nH]c3ccccc13)NC2(C)C [hobartine]
[1]
  IC50: 69 ± 3 µM
[2]; 50 µM, n = 5
  Shift of V1/2 of voltage-dependence of activation of NaV1.8: −9.0 mV
[2]; [5]
  IC50: 20 ± 2 µM
[2]
  V1/2 of voltage-dependence of activation of NaV1.8: −8.6 ± 0.8 mV
  V1/2 of voltage-dependence of steady-state fast inactivation of NaV1.8: −41.1 ± 3.8 mV
[2]; [6]
  IC50: 54 ± 1 µM
